Assay [1] has as its system HIV-1IIIB infected CEM-SS cells. In words: MTT staining for cell viability, HIV-1 hollow fiber mouse model. Format: in vivo. As to the method: (§1) The HIV-1 hollow fiber mouse model was performed (Hollingshead et al., Antiviral Res. 1995, 28:265-279; Buckheit et al., AIDS Res. Hum. Retroviruses 1997, 13:789-796; Xu et al., Bioorg. Med. Chem. Lett. 1999, 9:133-138; Quenelle et al., Antiviral Res. 1997, 35:123-129). In brief, CEM-SS cells were infected with HIV-1IIIB at a multiplicity of infection (MOI) of 0.0002 and sealed in hollow fibers (2×10^5 cells/fiber) immediately prior to implantation in the mice. Cell control hollow fibers (mock infected) and blank fibers (containing tissue culture medium without cells or virus) were prepared in a similar manner. Hollow fibers were implanted in the subcutaneous and intraperitoneal compartments of the mice (three fibers/compartment/mouse). Mice were treated with the E. tenella protein extract once daily (0.1 mL/10 g body weight) on day 0 (immediately prior to implantation of the fibers) and on days 1-6. Cell control, virus control and blank control mice were dosed similarly using 30 mM Hepes. AZT treated mice were also dosed similarly, however, dosing was performed twice daily at a concentration of 150 mg/kg (300 mg/kg/day). On day seven post implantation, the fibers, blood samples and peritoneal wash were collected from the mice. The viability of the infected CEM-SS cells collected from hollow fibers was determined using an MTT dye conversion assay. Viral reverse transcriptase assay and p24 (capsid) antigen quantification were performed on the hollow fiber cultures as well as the blood samples and the peritoneal wash. Of the three fibers collected from each compartment (intraperitoneal and subcutaneous), one fiber was used for analysis of viral reverse transcriptase and p24, while the remaining two fibers used to analyze cell viability by MTT dye reduction. The experimental treatment groups used in the study included the following: • 1. E. tenella protein extract concentration #1 (virus infected fibers; 7 mice) • 2. E. tenella protein extract concentration #2 (virus infected fibers; 7mice) • 3. E. tenella protein extract concentration #3 (virus infected fibers; 7 mice) • 4. AZT; positive control antiviral drug (virus infected fibers; 7 mice) • 5. Virus Control, no drug treatment (treated with vehicle; virus infected fibers; 7 mice) • 6. Cell Control, no drug treatment (treated with vehicle; mock-infected fibers; 7 mice) • 7. Blank Control, no drug treatment (treated with vehicle; “empty” fibers; 2 mice) MTT Staining for Cell Viability:
The viability of cells in the hollow fiber cultures was measured using an MTT dye reduction assay. MTT is a tetrazolium dye that is metabolized by the mitochondria enzymes of metabolically active cells to yield a […] formazan product that can be detected spectrophotometrically. Following collection from the animals, hollow fibers were placed individually into the wells of a 6-well tissue culture plate containing 2 mL of pre-warmed (37° C.) RPMI medium (without phenol red) supplemented with 20% fetal bovine serum. Cells were assayed to viability by adding 180 μL of MTT stock solution (pre-warmed to 37° C.) to each of the wells, followed by incubation for 4 hours at 37° C. in a 5% CO2 atmosphere, removal of medium/MTT solution, and addition of 4 mL of 2.5% Protamine Sulfate (PMS). […] Subsequently, 150 μL of each sample was transferred to a 96 well plate and the optical density of the samples read at 570/650 nm using a Molecular Devices Vmax or SpectraMaxPlus plate reader.

The test system is the same in assay [2]. In words: Reverse transcriptase assay, HIV-1 hollow fiber mouse model. The class given is in vivo. Particulars: 150 mg/kg twice daily (300 mg/kg/day), day 7. On the procedure: as §1
A microtiter plate-based reverse transcriptase (RT) reaction was utilized (Buckheit et al., AIDS Research and Human Retroviruses 1991, 7:295-302). Tritiated thymidine triphosphate (^3H-TTP 80 Ci/mmol, NEN) was received in 1:1 dH2O: Ethanol at 1 mCi/mL. Poly rA:oligo dT template:primer (Pharmacia) was prepared as a stock solution by combining 150 μL poly rA (20 mg/mL) with 0.5 mL oligo dT (20 units/mL) and 5.35 mL sterile dH2O followed by aliquoting (1.0 mL) and storage at −20° C. The RT reaction buffer was prepared fresh on a daily basis and consisted of 125 μL 1.0 M EGTA, 125 μL dH2O, 125 μL 20% Triton X100, 50 μL 1.0 M Tris (pH 7.4), 50 μL 1.0 M DTT, and 40 μL 1.0 M MgCl2. The final reaction mixture was prepared by combining 1 part ^3H-TTP, 4 parts dH2O, 2.5 parts poly rA:oligo dT stock and 2.5 parts reaction buffer. Ten microliters of this reaction mixture was placed in a round bottom microtiter plate and 15 μL of supernatant resulting from the lysis of cells collected from the fibers (see the section describing the p24 Antigen ELISA above) or serum or peritoneal wash (serum and peritoneal wash samples were clarified by centrifugation without further manipulation prior to analysis) was added and mixed. The plate was incubated at 37° C. for 60 minutes. […]

Assay [3] shares this test system. In words: p24 antigen ELISA, HIV-1 hollow fiber mouse model. Particulars: 150 mg/kg twice daily (300 mg/kg/day), day 7. Format: in vivo. On the procedure: as §1
Following collection of the fibers from the mice, detection of p24 antigen was performed according to the manufacturer's instructions. Individual fibers were cut open and placed in Eppendorf tubes and cells lysed by the addition of 250 μl of lysis buffer (0.02 M Tris-HCl pH 7.5, 0.05 M NaCl, 0.5% Triton X-100), incubation at room temperature for 30 minutes, vortexing, followed by centrifugation at 14,000 rpm for four minutes in a microcentrifuge. Serum and peritoneal wash samples were clarified by centrifugation without further manipulation prior to analysis. All p24 determinations on the resulting supernatants were performed following serial dilution of the samples to ensure absorbances in the linear range of the standard p24 antigen curve. The standard curve is produced using manufacturer-supplied standards and instructions. Data are obtained by spectrophotometric analysis at 450/570 nm using a Molecular Devices Vmax or SpectraMaxPlus plate reader. Final concentrations are calculated from the optical density values using the Molecular Devices SoftMax Pro software package and expressed in pg/ml p24 antigen.

The test system of assay [4] is experimental autoimmune encephalomyelitis (EAE). As to the kind of experiment: Experimental autoimmune encephalomyelitis (EAE) model. Format: in vivo, SJL mice. As to conditions: 5 mg s.c. daily for 5 days from day 10. On the procedure: This hyposthesis was tested in the experimental autoimmune encephalomyelitis (EAE) model in SJL mice. EAE is induced in mice by immunization with spinal cord derived myelin basic protein which induces a disease in the mice which is very similar to multiple schlerosis (MS) in humans.
Treatments were given daily for 5 days. Linomide is a drug that is known to inhibit EAE and is used as a positive control. […] Severity of EAE is measured by means of the EAE score which starts at 0 for normal and increases to a score of 5 when death occurs. For ethical reasons mice are sacrificed when a score of 4 is reached.

Setting [5] is: 150 mg/kg twice daily (300 mg/kg/day), day 7.
Where [6] appears, read: 150 mg/kg twice daily (300 mg/kg/day), fibers day 7, optical density 570/650 nm.

The structures appear in SMILES notation.

For `Cc1cn([C@H]2C[C@H](N=[N+]=[N-])[C@@H](CO)O2)c(=O)[nH]c1=O` [AZT, 3′-Azido-3′-deoxythymidine], in assay [1] (setting [5]), the “MTT Intraperitoneal Fiber, % CPE Reduction, % Value” is 0.00% and the “MTT Subcutaneous Fiber, % CPE Reduction, % Value” stood at 6.83%. In assay [1] (setting [6]), the “MTT Intraperitoneal Fiber, Average” value turned out to be 1.11 and the “MTT Subcutaneous Fiber, Average” value came to 0.96. The “Effect on cytopathic effect (CPE) of HIV-1IIIB on CEM-SS cells” value in assay [1] (hollow fiber cultures, all concentrations tested) was “did not have an effect on this viral endpoint”. Moreover, in assay [2], the “Reverse Transcriptase Intraperitoneal Fiber, % Virus Control, % Value” was 52.8%; the “Reverse Transcriptase Intraperitoneal Fiber, Average” value is 6372 CPM; the “Reverse Transcriptase Peritoneal Wash, % Virus Control, % Value” turned out to be 25.7%; the “Reverse Transcriptase Peritoneal Wash, Average” value was found to be 392 CPM. In assay [2], the “Reverse Transcriptase Serum, % Virus Control, % Value” was 52.8%; the “Reverse Transcriptase Serum, Average” value amounted to 403 CPM; the “Reverse Transcriptase Subcutaneous Fiber, % Virus Control, % Value” is 71.9%; the “Reverse Transcriptase Subcutaneous Fiber, Average” value is 10178 CPM. In assay [3], the “p24 Intraperitoneal Fiber, % Virus Control, % Value” came to 99.1%; the “p24 Intraperitoneal Fiber, Average” value came out at 215136 pg/mL; the “p24 Peritoneal Wash, % Virus Control, % Value” is on record as 92.8%; the “p24 Peritoneal Wash, Average” value worked out at 109 pg/mL. In addition, in assay [3], the “p24 Serum, % Virus Control, % Value” was determined as 37.0%; the “p24 Serum, Average” value turned out to be 18 pg/mL; the “p24 Subcutaneous Fiber, % Virus Control, % Value” stood at 110.3%; the “p24 Subcutaneous Fiber, Average” value turned out to be 312334 pg/mL.

Consider `CN(C(=O)c1c(O)c2ccccc2n(C)c1=O)c1ccccc1` [Linomide], for which the “Day 15 EAE Score ± SD” value in assay [4] stood at 0.6 ± 1.3.

Source of the values: patent US20050058658A1, “Compositions and methods for immunotherapy of human immunodeficiency virus (HIV)” (priority 2003, published 2005).
